Patent US11382956B2, “Amylin analogues” (Zealand Pharma A/S, priority 2016, dated 2022)
Numbered stars: 1 amine (or outer) side, 2 acyl side, 3 side chain; on linkers, the order of the positions; unused ones are H or OH. Bridge positions count the residues as written; N and C are the ends. Square brackets hold non-standard residues; d marks the D form. Peptide text beside a SMILES is read from it. * marks the point of attachment. C20 diacid = O=C(O)CCCCCCCCCCCCCCCCCCC(=O)*; γGlu = O=C(O)[C@H](CCC(=O)[*:2])N[*:1]; Hyp = O=C(O)[C@@H]1C[C@@H](O)CN1; NMeI = CC[C@H](C)[C@H](NC)C(=O)O; Orn = NCCC[C@H](N)C(=O)O; Dab = NCC[C@H](N)C(=O)O; Sar = CNCC(=O)O

Assays:
[1] = Assessment of chemical stability in 40 mM buffers at 40° C. (RP-HPLC); format: physicochemical; conditions: 1 mg/mL; for % degradation after 72 h at 40° C. pH4 acetate: acetate buffer pH 4, 72 h; for % degradation after 72 h at 40° C. pH6 phosphate: phosphate buffer pH 6, 72 h; for % degradation after 14 days at 40° C. pH6 phosphate: phosphate buffer pH 6, 14 days; for % degradation after 72 h at 40° C. pH7 phosphate: phosphate buffer pH 7, 72 h
Summary of the method: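 Peptides at 1 mg/mL in 40 mM acetate pH 4 or phosphate pH 6 and 7 were held at 40° C for 3 and 14 days. Main-peak area-% by C8 RP-HPLC, UV 220 nm; % degradation = change in main-peak area-% versus t=0.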

[2] = Pharmacokinetic (PK) profiling in rats; conditions: male, Sprague Dawley, plasma; rat, single sc bolus 30 nmol/kg; read-out: in vivo half life t1/2 (plasma terminal elimination half-life) (converted)
Description: Sprague Dawley male rats were given a single subcutaneous (sc) bolus of each peptide to be tested, as specified below.
30 nmol/kg doses of compound were administered. Blood samples were drawn from the tail vein prior to dosing and at 24 and 96 hours after dosing. The rats were euthanized immediately after the last blood sampling by concussion and cervical dislocation.
The dosing vehicle used for each test peptide was a mannitol-containing histidine buffer (pH 7.0). Plasma samples were analyzed after precipitation with ethanol by liquid chromatography mass spectrometry (LC-MS/MS). Mean plasma concentrations were used for calculation of the pharmacokinetic parameters.
Plasma terminal elimination half-life (t1/2) was determined as In(2)/λz, where λz is the magnitude of the slope of the log linear regression of the log concentration versus time profile during the terminal phase.

[3] = molecular target: T1, recombinant human calcitonin receptor (hCT-R) (Homo sapiens, UniProt P30988); experiment: hCT-R cAMP assay (AlphaScreen) in 1321N1 cells; format: cell-based; conditions: cAMP formation, 45 min stimulation
T1 construct: host or cells: human astrocytoma cell line 1321N1
T1 sequence (P30988 25-474): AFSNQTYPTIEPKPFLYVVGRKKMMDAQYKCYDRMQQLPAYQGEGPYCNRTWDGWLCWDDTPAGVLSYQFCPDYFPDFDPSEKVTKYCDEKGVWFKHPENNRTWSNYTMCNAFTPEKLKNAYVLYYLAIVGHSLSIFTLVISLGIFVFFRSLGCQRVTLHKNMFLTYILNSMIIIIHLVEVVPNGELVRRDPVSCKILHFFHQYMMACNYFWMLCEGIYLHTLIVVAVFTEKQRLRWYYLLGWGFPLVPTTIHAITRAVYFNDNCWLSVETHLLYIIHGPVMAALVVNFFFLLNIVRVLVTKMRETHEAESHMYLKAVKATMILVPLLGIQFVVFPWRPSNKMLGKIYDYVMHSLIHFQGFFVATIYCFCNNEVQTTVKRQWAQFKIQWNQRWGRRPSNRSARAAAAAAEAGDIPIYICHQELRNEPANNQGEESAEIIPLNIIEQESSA
Summary of the method: (§1)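 1321N1 astrocytoma cells expressing recombinant human calcitonin receptor alone or with RAMP3 (AMY3) stimulated 45 min at room temperature with peptide in IBMX-containing buffer. cAMP quantified by AlphaScreen after 1 h bead incubation; EC50 fitted from at least 7 concentrations.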

[4] = molecular target: T2, recombinant human amylin 3 receptor (hAMYR3) (Homo sapiens, UniProt O60896+P30988); experiment: hAMYR3 cAMP assay (AlphaScreen) in 1321N1 cells; format: cell-based; conditions: cAMP formation, 45 min stimulation
T2 construct: host or cells: human astrocytoma cell line 1321N1
T2 sequence (P30988 25-474): T1 sequence (P30988 25-474)
T2 sequence (O60896 24-148 partner): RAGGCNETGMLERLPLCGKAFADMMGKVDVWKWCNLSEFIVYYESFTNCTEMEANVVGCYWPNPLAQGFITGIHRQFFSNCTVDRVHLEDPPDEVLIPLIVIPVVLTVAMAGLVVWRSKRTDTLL
Summary of the method: as §1

[5] = Effect on acute food intake and body weight in normal Sprague Dawley rats; format: in vivo, Sprague Dawley (SD) rats; conditions: Dose: 30 nmol/kg sc, vehicle-corrected
[6] = Assessment of physical stability: fibril formation by Thioflavin T fluorescence; format: physicochemical; design: key: FND = fibrillation not detected; FD = fibrillation detected; conditions: 1 mg/mL peptide; for Fibrillation (in buffer) pH4 acetate: 50 mM acetate buffer pH 4.0, 96 hours at 40° C.; for Fibrillation (in buffer) pH7 histidine: 50 mM histidine buffer pH 7.0, 96 hours at 40° C.; for Fibrillation (in buffer) pH7 phosphate: 50 mM phosphate buffer pH 7.0, 96 hours at 40° C.
Summary of the method: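 Test peptide at 1 mg/mL with 40 μM ThT in 50 mM phosphate pH 7.0, 50 mM histidine pH 7.0, or 50 mM acetate pH 4.0, in triplicate. Fluorescence read every 10 min after 300 s agitation for 96 hours at 40° C; significant intensity rise scored as fibrillation detected (FD).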

[7] = Chemical stability, alternative analysis in MilliQ water with pH adjusted, 40° C. (RP-HPLC); format: physicochemical
Description: In an alternative analysis, peptides were dissolved in MilliQ water and pH adjusted to 4.0, 7.5 or 9.0. Samples were placed in glass vials and incubated at 40° C. The samples were analyzed by RP-HPLC on a C8 column with gradient elution using a trifluoroacetic acid/acetonitrile/water eluent system. The area-percentage (area-%) of the main peak was determined by UV spectroscopy at 220 nm at each sampling time point.
The % degradation was calculated by subtracting the […].
The results of the chemical stability assessment after 8 days of incubation time are summarized as % degradation in Table 3 (below).

## CC[C@H](C)[C@@H](C(=O)N[C@@H](CC(C)C)C(=O)N[C@@H](CO)C(=O)N[C@@H](CO)C(=O)N[C@H](C(=O)N[C@@H](CCC(=O)O)C(=O)N[C@H](C(=O)NCC(=O)N[C@@H](CO)C(=O)N[C@@H](CC(N)=O)C(=O)N[C@H](C(=O)N1C[C@H](O)C[C@H]1C(N)=O)[C@@H](C)O)C(C)C)[C@@H](C)O)N(C)C(=O)[C@H](C)NC(=O)CN(C)C(=O)[C@H](Cc1ccccc1)NC(=O)[C@H](CO)NC(=O)[C@H](CO)NC(=O)[C@H](CCCNC(=N)N)NC(=O)[C@H](CCC(N)=O)NC(=O)[C@H](CC(C)C)NC(=O)[C@H](Cc1ccccc1)NC(=O)[C@H](Cc1c[nH]cn1)NC(=O)[C@H](C)NC(=O)[C@H](CC(C)C)NC(=O)[C@H](CCCNC(=N)N)NC(=O)[C@H](CCC(=O)O)NC(=O)[C@@H](NC(=O)[C@H](C)NC(=O)[C@@H]1CCCNC(=O)C[C@H](NC(=O)[C@H](CCCNC(=N)N)NC(=O)CC[C@H](NC(=O)CCCCCCCCCCCCCCCCCCC(=O)O)C(=O)O)C(=O)NCC(=O)N[C@@H]([C@@H](C)O)C(=O)N[C@@H](C)C(=O)N[C@@H]([C@@H](C)O)C(=O)N1)[C@@H](C)O [Compound 3, [19CD]-isoGlu-RD()GTAT-Orn()-ATERLAHFLQRSSF-Gly(Me)-A-Ile(Me)-LSSTEVGSNT-Hyp-NH2] ({C20 diacid-γGlu}-RDGTAT[Orn]ATERLAHFLQRSSF[Sar]A[NMeI]LSSTEVGSNT[Hyp]-NH2; lactam 2-7)
[1]
  % degradation after 72 h at 40° C. pH4 acetate: <1%
  % degradation after 72 h at 40° C. pH6 phosphate: 3.2%
  % degradation after 14 days at 40° C. pH6 phosphate: 1.0%
  % degradation after 72 h at 40° C. pH7 phosphate: 1.2%
[2]
  half-life: 21.3 h
[3]
  EC50: 0.081 nM
[4]
  EC50: 0.035 nM
[5]
  Body weight reduction in % at 48 h: 5.6%
  Food intake reduction in % at 48 h: 34%
[6]
  Fibrillation (in buffer) pH4 acetate: FND
  Fibrillation (in buffer) pH7 histidine: FND
  Fibrillation (in buffer) pH7 phosphate: FD

## CC[C@H](C)[C@@H](C(=O)N[C@@H](CC(C)C)C(=O)N[C@@H](CO)C(=O)N[C@@H](CO)C(=O)N[C@H](C(=O)N[C@@H](CCC(=O)O)C(=O)N[C@H](C(=O)NCC(=O)N[C@@H](CO)C(=O)N[C@@H](CC(N)=O)C(=O)N[C@H](C(=O)N1C[C@H](O)C[C@H]1C(N)=O)[C@@H](C)O)C(C)C)[C@@H](C)O)N(C)C(=O)[C@H](C)NC(=O)CN(C)C(=O)[C@H](Cc1ccccc1)NC(=O)[C@H](CO)NC(=O)[C@H](CO)NC(=O)[C@H](CCCNC(=N)N)NC(=O)[C@H](CCC(N)=O)NC(=O)[C@H](CC(C)C)NC(=O)[C@H](Cc1ccccc1)NC(=O)[C@H](Cc1c[nH]cn1)NC(=O)[C@H](C)NC(=O)[C@H](CC(C)C)NC(=O)[C@H](CCCNC(=N)N)NC(=O)[C@H](CCC(=O)O)NC(=O)[C@@H](NC(=O)[C@H](C)NC(=O)[C@@H]1CCCNC(=O)C[C@H](NC(=O)[C@H](CCCNC(=N)N)NC(=O)CC[C@H](NC(=O)CC[C@H](NC(=O)CCCCCCCCCCCCCCCCCCC(=O)O)C(=O)O)C(=O)O)C(=O)NCC(=O)N[C@@H]([C@@H](C)O)C(=O)N[C@@H](C)C(=O)N[C@@H]([C@@H](C)O)C(=O)N1)[C@@H](C)O [Compound 4, [19CD]-isoGlu-isoGlu-RD()GTAT-Orn()-ATERLAHFLQRSSF-Gly(Me)-A-Ile(Me)-LSSTEVGSNT-Hyp-NH2] ({C20 diacid-γGlu-γGlu}-RDGTAT[Orn]ATERLAHFLQRSSF[Sar]A[NMeI]LSSTEVGSNT[Hyp]-NH2; lactam 2-7)
[1]
  % degradation after 72 h at 40° C. pH4 acetate: <1%
  % degradation after 72 h at 40° C. pH6 phosphate: <1%
  % degradation after 14 days at 40° C. pH6 phosphate: <1%
  % degradation after 72 h at 40° C. pH7 phosphate: <1%
[1]; acetate buffer pH 4, 14 days
  % degradation after 14 days at 40° C. pH4 acetate: 1.6%
[1]; phosphate buffer pH 7, 14 days
  % degradation after 14 days at 40° C. pH7 phosphate: 6.4%
[2]
  half-life: 31.9 h
[3]
  EC50: 0.16 nM
[4]
  EC50: 0.092 nM
[5]
  Body weight reduction in % at 48 h: 4.6%
  Food intake reduction in % at 48 h: 34%
[6]
  Fibrillation (in buffer) pH4 acetate: FND
  Fibrillation (in buffer) pH7 histidine: FND
  Fibrillation (in buffer) pH7 phosphate: FND

## CC[C@H](C)[C@@H](C(=O)N[C@@H](CC(C)C)C(=O)N[C@@H](CO)C(=O)N[C@@H](CO)C(=O)N[C@H](C(=O)N[C@@H](CCC(=O)O)C(=O)N[C@H](C(=O)NCC(=O)N[C@@H](CO)C(=O)N[C@@H](CC(N)=O)C(=O)N[C@H](C(=O)N1C[C@H](O)C[C@H]1C(N)=O)[C@@H](C)O)C(C)C)[C@@H](C)O)N(C)C(=O)[C@H](C)NC(=O)CN(C)C(=O)[C@H](Cc1ccccc1)NC(=O)[C@H](CO)NC(=O)[C@H](CO)NC(=O)[C@H](CCCNC(=N)N)NC(=O)[C@H](CCC(N)=O)NC(=O)[C@H](CC(C)C)NC(=O)[C@H](Cc1ccccc1)NC(=O)[C@H](Cc1c[nH]cn1)NC(=O)[C@H](C)NC(=O)[C@H](CC(C)C)NC(=O)[C@H](CCCNC(=N)N)NC(=O)[C@H](CCC(=O)O)NC(=O)[C@@H](NC(=O)[C@H](C)NC(=O)[C@@H]1CCNC(=O)CC[C@H](NC(=O)[C@H](CCCNC(=N)N)NC(=O)CC[C@H](NC(=O)CCCCCCCCCCCCCCCCCCC(=O)O)C(=O)O)C(=O)NCC(=O)N[C@@H]([C@@H](C)O)C(=O)N[C@@H](C)C(=O)N[C@@H]([C@@H](C)O)C(=O)N1)[C@@H](C)O [Compound 51, [19CD]-isoGlu-RE()GTAT-Dab()-ATERLAHFLQRSSF-Gly(Me)-A-Ile(Me)-LSSTEVGSNT-Hyp-NH2] ({C20 diacid-γGlu}-REGTAT[Dab]ATERLAHFLQRSSF[Sar]A[NMeI]LSSTEVGSNT[Hyp]-NH2; lactam 2-7)
[3]
  EC50: 0.861 nM
[4]
  EC50: 0.306 nM
[7]; pH adjusted to 4.0, 8 days
  % degradation after 8 days at 40° C. pH4: 3.1%
[7]; pH adjusted to 7.5, 8 days
  % degradation after 8 days at 40° C. pH7.5: 4.6%
[7]; pH adjusted to 9.0, 8 days
  % degradation after 8 days at 40° C. pH9: 4.6%
